Assay [1] deals with prostate specific antigen (PSA). As to the kind of experiment: PSA expression by qRT/PCR in VCaP cells. In kind it is cell-based, human. As to conditions: VCaP cells in androgen depleted media. On the procedure:
(§1) Cells were cultured in media depleted of androgen and after a washout of 72 hrs were treated with the synthetic androgen R1881, KBU2046, enzalutamide and/or vehicle (control), and resultant effects upon induction of the androgen-responsive gene, prostate specific antigen (PSA) were measured (FIG. 3A).
(§2) LNCaP or VCaP cells cultured in hormone free media were treated with R1881 (R), KBU2046 (46) and/or enzalutamide (E). (FIGS. 3A and 3B) Effects on AR-responsive gene expression. PSA expression was measured by qRT/PCR, normalized to GAPDH and expressed as a percent of control cells (N=3 replicates); * denotes P<0.05 for groups separated by bar. (FIGS. 3C and 3D) Effects on cell growth. Three day growth assays were performed. Data are the number of viable cells, expressed as % of control (N=3 replicates); * P<0.05 compared to control. (E) Effects on AR activation. Western blots of nuclear (N) and cytoplasmic (C) preparations of cell extracts were probed for AR, laminin 1 or α-tubulin. (FIGS. 3F and 3G) Effects on tumor outgrowth after androgen deprivation therapy. LNCaP/AR-luc cells were implanted subcutaneously (N=6 mice/cohort) or orthotopic (N=15 mice/cohort were implanted; N=5 yielded tumors) into castrate mice, treatment with KBU2046 began as noted, and weekly IVIS imaging performed. Data are tumor size, expressed as luminescence intensity. All data are expressed as mean±SEM.
(§3) RNA was isolated and qRT/PCR performed as previously described by us (Ding et al., J Biomol Tech 18, 321-330 (2007)). Resultant data were analyzed using the 2^−ΔΔt method (Livak et al., Methods 25, 402-408 (2001)), normalized to GAPDH, for the following primer/probe sets (ABI) PSA (Hs02576345_m1) and GAPDH (Hs99999905_m1). Assays were performed in triplicate, and were repeated.

For assay [2] the test system is unchanged. As to the kind of experiment: PSA expression by qRT/PCR in LNCaP cells. The format is cell-based, human. To be noted: LNCaP cells in androgen depleted media. On the procedure: as §1, §2, §3
In assay [3] the test system is VCaP cells. As to the kind of experiment: SRB growth inhibition assay, VCaP. To be noted: 10 μM enzalutamide, 10 μM KBU2046 added to control or enzalutamide treated cells, 72 hours. The format is cell-based, human. As for the experimental part: as §2
(§4) Enzalutamide mediated growth inhibition was assessed using Sulforhodamine B (SRB) growth inhibition assays, were performed as previously described (49). In brief, LNCaP and VCaP cells were pre-incubated in charcoal-striped medium for 48 hours and then seeded (1.9×10^4) in 96-well plates. […]

Assay [4] has as its system LNCaP cells. The assay can be described thus: SRB growth inhibition assay, LNCaP. The format is cell-based, human. To be noted: 10 μM enzalutamide, 10 μM KBU2046 added to control or enzalutamide treated cells, 72 hours. As for the experimental part: as §2, §4
Assay [5] relates to PC3-M-luc cells. As to the kind of experiment: PCa orthotopic implantation, primary tumor growth and lung metastasis. In kind it is in vivo, mice. On the procedure: To assess the efficacy of a spectrum of docetaxel concentrations, mice received orthotopic implants of PC3-M-luc cells, were treated with 0, 10 or 20 mg/kg docetaxel, and tumor growth monitored with weekly IVIS imaging. […] Subsequently, mice with orthotopic implants of PC3-M-luc cells were treated with docetaxel, KBU2046, docetaxel+KBU2046 or vehicle, as denoted, and effects on primary tumor growth and lung metastasis quantified (FIGS. 2A, 2B, and 2C).
Cohorts of N=10 mice bearing orthotopic implants of PC3-M-luc cells were treated daily with 150 mg/kg KUB2046 (46), intraperitoneal docetaxel 7.5 mg/kg weekly (doc), the combination (doc+46), or with oral and intraperitoneal vehicle (CO). KBU2046 treatment began 3 days before implantation and docetaxel began 1 week after. (A) Lung metastasis measured by qPCR for human Alu sequences, expressed as percent control (B) Weekly IVIS imaging of tumor. (C) Tumor weight. * denotes P<0.05 for differences between cohorts denoted by bars. All data are mean±SEM.
PCa orthotopic implantation: Orthotopic implantation of 2.5×10^5 PC3M-luc into 7-8 week old male athymic mice was performed as previously described by us (5, 52 Xu et al., above; and Pavese et al., J Vis Exp, e50873 (2013)). Daily oral gavage treatment with 150 mg/kg KBU2046 or was initiated 3 days prior to implantation and continued throughout the duration of the study. Weekly IP injections with 7.5 mg/kg docetaxel or control were administered beginning one week post implantation. Primary tumor out growth was monitored via weekly IVIS imaging. At the completion of the study the primary tumor was resected and weighed and lungs were resected and snap frozen. To determine the human PCa metastatic burden in each mouse lung, the snap frozen tissue was pulverized, DNA isolated and Alu-sequencing performed as previously described (19). […] (SEQ ID NO: 3). The 144RH probe was labeled with a 5′ fluorescent reporter (6-FAM) and a 3′ fluorescent quencher (Black Hole Quencher). The relative content of human DNA was calculated with using the comparative CT method, CT (sample)-CT(negative control). All samples were run in triplicate and were repeated.

Assay [6] relates to PC3-M cells. The assay can be described thus: PCa subcutaneous implantation, tumor growth. The format is in vivo. As to conditions: oral 80 mg KBU2046/kg, weekly intraperitoneal docetaxel 20 mg/kg, KBU2046 added to control or docetaxel treated mice. On the procedure:
FIG. 1A depicts the effect of chemotherapy on the growth of androgen independent PC3-M PCa cells in vitro. Data are the mean±SEM (N=3 replicates) of cell viability in a 3 day growth assay in the presence of 10 μM KBU2046 or vehicle (control) treated with docetaxel or cabazitaxel. FIG. 1B depicts the effect of chemotherapy on the growth of androgen independent PCa cells in vivo. Mice received subcutaneous implants of PC3-M cells, were monitored until tumors were detectable (250 mm^3), and then treated daily with oral 80 mg KBU2046/kg (46) or vehicle (CO) and with weekly intraperitoneal docetaxel (doc) at 0 or 20 mg/kg, beginning on day 1, and tumor size measured. Data are mean±SEM, with N=20 mice per cohort.
PCa subcutaneous implantation: 2.5×10^5 PC3-M cells in sterile PBS were implanted into the right flank of 6-7 week old male athymic nude mice (Charles River) and tumor growth measurements were performed twice a week as previously described by us (Gordon et al., Chemotherapy-induced monoamine oxidase expression in prostate carcinoma functions as a cytoprotective resistance enzyme and associates with clinical outcomes. PLoS One 9, e104271 (2014)). […] Tumor measurements were obtained in a blinded fashion, and tumor volumes were calculated with the following formula: length×(width)^2×0.5.

As for `CNC(=O)c1ccc(N2C(=S)N(c3ccc(C#N)c(C(F)(F)F)c3)C(=O)C2(C)C)cc1F` [enzalutamide], the PSA expression entry in assay [1] and in assay [2] was “decreased” in each case. Further, the cell growth result in assay [3] and in assay [4] was “significantly inhibited” throughout.

Consider `CC(=O)O[C@@]12CO[C@@H]1C[C@H](O)[C@@]1(C)C(=O)[C@H](O)C3=C(C)[C@@H](OC(=O)[C@H](O)[C@@H](NC(=O)OC(C)(C)C)c4ccccc4)C[C@@](O)([C@@H](OC(=O)c4ccccc4)[C@H]21)C3(C)C` [docetaxel], for which the “prostate tumor growth kinetics by weekly IVIS imaging” value in assay [5] (cohorts receiving docetaxel 7.5 mg/kg weekly vs not) is reported as “slower growth”. The “tumor growth by weekly IVIS imaging” value in assay [5] (orthotopic PC3-M-luc, 0, 10 or 20 mg/kg docetaxel, dose-dependent) is “significantly inhibited”. Further, in assay [5] (orthotopic PC3-M-luc, 150 mg/kg KBU2046 daily, docetaxel 7.5 mg/kg weekly), the “decrease of tumor weight compared to control” value is given as 49%. Besides, the “decrease of lung metastasis compared to control (human Alu qPCR)” value in assay [5] (orthotopic PC3-M-luc, 150 mg/kg KBU2046 daily, docetaxel 7.5 mg/kg weekly intraperitoneal) turned out to be 23%. Moreover, the tumor growth result in assay [6] is “significantly inhibited”.

The values above are taken from patent publication US20220133894A1, “BISPHOSPHONATE-LINKED COMPOUNDS” (OREGON HEALTH & SCIENCE UNIVERSITY, priority 2019, published 2022).
